{"source": "patent US9932637B2", "about": "“Genetic polymorphisms associated with cardiovascular disorders and drug response, methods of detection and uses thereof” (CELERA CORPORATION, priority 2003, dated 2018)", "key": {"[1]": {"system": "patients with prior myocardial infarction (CARE study)", "test": "CARE: association of SNPs with pravastatin treatment in RMI prevention (genotypic RR in placebo and statin strata; Table 10)", "format": "in vivo, human", "excerpt": "In order to identify genetic markers associated with acute coronary events (e.g. MI, stroke, unstable angina, congestive heart failure, etc.) or response to statin treatment for the prevention of coronary events, samples from the Cholesterol and Recurrent Events (CARE) study (a randomized multicentral double-blinded trial on secondary prevention of acute coronary events with pravastatin) (Sacks et al., 1991, Am. J. Cardiol. 68: 1436-1446) were genotyped. A well-documented myocardial infarction (MI) was one of the enrollment criteria for entry into the CARE study. Patients were enrolled in the CARE trial from 80 participating study centers. […] Patients were randomized to receive either 40 mg of pravastatin once daily or a matching placebo. The primary endpoint of the trial was death from coronary heart disease and the median duration of follow-up was 5.0 years (range, 4.0 to 6.2 years). […] Secondary endpoints of other related cardiovascular or metabolic disease events, and changes in clinical variables were also recorded in pravastatin-treated and placebo groups. All individuals included in the study had signed a written informed consent form and the study protocol was approved by the respective Institutional Review Boards (IRBs).\nFor genotyping SNPs in CARE patient samples, DNA was extracted from blood samples using conventional DNA extraction methods such as the QIA-amp kit from Qiagen. Genotypes were obtained on an ABI PRISM® 7900HT Sequence Detection PCR system (Applied Biosystems, Foster City, Calif.) by kinetic allele-specific PCR, similar to the method described by Germer et al. (Germer S., Holland M. J., Higuchi R. 2000, Genome Res. 10: 258-266).\nFor statistical analysis of association of SNPs with pravastatin treatment in RMI prevention (Table 10), effect sizes were estimated through genotypic RR, including 95% CIs. Homogeneity of Cochran-Mantel-Haenszel odds ratios was tested across pravastatin and placebo strata using the Wald test. […] (this adjustment supports independence of the SNP association from conventional risk factors). This table also provides the frequency data for the at risk allele in the columns labeled “Case Y PRIMER ALLELE Nucleotide Frequency” and “Control Y PRIMER ALLELE Nucleotide Frequency”. Allele frequencies for the cases and controls ≤0.49 indicate that the at-risk allele is the minor allele. Allele frequencies ≥0.50 indicate that the at-risk allele is the major allele. An example of a SNP associated with increased risk for an adverse cardiovascular event in the placebo group using a dominant genotypic test is hCV25644901. […] However, this same SNP was protective in the statin treated group with a RR of 0.58. An example of a SNP associated with an adverse cardiovascular event in the placebo group using the allelic association test is hCV16044337 with a RR of 1.87 for the homozygous AA genotype. This same genotype was protective in the statin treated group with a RR of 0.56."}, "[2]": {"system": "animal models and myocyte cultures", "settings": "compared to other hydrophobic statins; cited from earlier work"}}}
{"compound": "CC[C@H](C)C(=O)O[C@H]1C[C@H](O)C=C2C=C[C@H](C)[C@H](CC[C@@H](O)C[C@@H](O)CC(=O)O)[C@H]21", "note": "[pravastatin]", "values": [{"measurement": "RR (relative risk for RMI)", "setting": "[1]; HSPG2 hCV16172339, Het(TC) stratum, Statin vs Placebo, covars none", "result": 0.37}, {"measurement": "RR (relative risk for RMI)", "setting": "[1]; HSPG2 hCV16172339, Maj Hom (CC) stratum, Statin vs Placebo, covars none", "result": 0.80}, {"measurement": "RR (relative risk for RMI)", "setting": "[1]; HSPG2 hCV16172339, Statin stratum, het (TC)vs. ref(CC), covars none", "result": 0.66}, {"measurement": "RR (relative risk for RMI)", "setting": "[1]; IL4R hCV2351160, Het(GA) stratum, Statin vs Placebo, covars HX_SMOKE", "result": 0.57}, {"measurement": "RR (relative risk for RMI)", "setting": "[1]; IL4R hCV2351160, Maj Hom(AA) stratum, Statin vs Placebo, covars HX_SMOKE", "result": 0.85}, {"measurement": "RR (relative risk for RMI)", "setting": "[1]; IL4R hCV2351160, Min Hom(GG) stratum, Statin vs Placebo, covars HX_SMOKE", "result": 0.36}, {"measurement": "RR (relative risk for RMI)", "setting": "[1]; IL4R hCV2351160, Statin stratum, het(GA) vs. ref(AA), covars HX_SMOKE", "result": 0.76}, {"measurement": "RR (relative risk for RMI)", "setting": "[1]; IL4R hCV2351160, Statin stratum, hom (GG)vs. ref(AA), covars HX_SMOKE", "result": 0.61}, {"measurement": "RR (relative risk for RMI)", "setting": "[1]; IL4R hCV2769554, Het(GA) stratum, Statin vs Placebo", "result": 0.64}, {"measurement": "RR (relative risk for RMI)", "setting": "[1]; IL4R hCV2769554, Maj Hom(AA) stratum, Statin vs Placebo", "result": 0.59}, {"measurement": "RR (relative risk for RMI)", "setting": "[1]; IL4R hCV2769554, Min Hom(GG) stratum, Statin vs Placebo", "result": 1.56}, {"measurement": "RR (relative risk for RMI)", "setting": "[1]; IL4R hCV2769554, Statin stratum, het(GA) vs. ref(AA)", "result": 1.17}, {"measurement": "RR (relative risk for RMI)", "setting": "[1]; IL4R hCV2769554, Statin stratum, hom(GG) vs. ref(AA)", "result": 1.26}, {"measurement": "RR (relative risk for RMI)", "setting": "[1]; ITGA9 hCV3215409, Het(GA) stratum, Statin vs Placebo", "result": 0.86}, {"measurement": "RR (relative risk for RMI)", "setting": "[1]; ITGA9 hCV3215409, Maj Hom(AA) stratum, Statin vs Placebo", "result": 0.84}, {"measurement": "RR (relative risk for RMI)", "setting": "[1]; ITGA9 hCV3215409, Min Hom(GG) stratum, Statin vs Placebo", "result": 0.30}, {"measurement": "RR (relative risk for RMI)", "setting": "[1]; ITGA9 hCV3215409, Statin stratum, het (GA)vs. ref(AA)", "result": 1.22}, {"measurement": "RR (relative risk for RMI)", "setting": "[1]; ITGA9 hCV3215409, Statin stratum, hom(GG) vs. ref(AA)", "result": 0.54}, {"measurement": "RR (relative risk for RMI)", "setting": "[1]; LAMA2 hCV16047108, Het (GA) stratum, Statin vs Placebo", "result": 1.31}, {"measurement": "RR (relative risk for RMI)", "setting": "[1]; LAMA2 hCV16047108, Maj Hom (AA) stratum, Statin vs Placebo", "result": 0.63}, {"measurement": "RR (relative risk for RMI)", "setting": "[1]; LAMA2 hCV16047108, Statin stratum, het(GA) vs. ref (AA)", "result": 2.02}, {"measurement": "RR (relative risk for RMI)", "setting": "[1]; LAMA2 hCV16047108, Statin stratum, hom(GG) vs. ref (AA)", "result": 4.97}, {"measurement": "RR (relative risk for RMI)", "setting": "[1]; LPA hCV11225994, Het(GA) stratum, Statin vs Placebo", "result": 1.02}, {"measurement": "RR (relative risk for RMI)", "setting": "[1]; LPA hCV11225994, Maj Hom(GG) stratum, Statin vs Placebo", "result": 0.62}, {"measurement": "RR (relative risk for RMI)", "setting": "[1]; LPA hCV11225994, Min Hom(AA) stratum, Statin vs Placebo", "result": 1.33}, {"measurement": "RR (relative risk for RMI)", "setting": "[1]; LPA hCV11225994, Statin stratum, het(GA) vs. ref (GG)", "result": 1.06}, {"measurement": "RR (relative risk for RMI)", "setting": "[1]; LPA hCV11225994, Statin stratum, hom (AA)vs. ref(GG)", "result": 2.34}, {"measurement": "RR (relative risk for RMI)", "setting": "[1]; MACF1 hCV3112686, Het(GC) stratum, Statin vs Placebo, covars HX_SMOKE", "result": 0.71}, {"measurement": "RR (relative risk for RMI)", "setting": "[1]; MACF1 hCV3112686, Maj Hom(CC) stratum, Statin vs Placebo, covars HX_SMOKE", "result": 0.96}, {"measurement": "RR (relative risk for RMI)", "setting": "[1]; MACF1 hCV3112686, Min Hom(GG) stratum, Statin vs Placebo, covars HX_SMOKE", "result": 0.42}, {"measurement": "RR (relative risk for RMI)", "setting": "[1]; MACF1 hCV3112686, Statin stratum, het(GC) vs. ref(CC), covars HX_SMOKE", "result": 0.98}, {"measurement": "RR (relative risk for RMI)", "setting": "[1]; MACF1 hCV3112686, Statin stratum, hom(GG) vs. ref(CC), covars HX_SMOKE", "result": 0.60}, {"measurement": "RR (relative risk for RMI)", "setting": "[1]; NPC1 hCV25472673, Het(TC) stratum, Statin vs Placebo, covars none", "result": 0.61}, {"measurement": "RR (relative risk for RMI)", "setting": "[1]; NPC1 hCV25472673, Maj Hom(TT) stratum, Statin vs Placebo, covars none", "result": 1.08}, {"measurement": "RR (relative risk for RMI)", "setting": "[1]; NPC1 hCV25472673, Statin stratum, het(TC) vs. ref(TT), covars none", "result": 0.76}, {"measurement": "RR (relative risk for RMI)", "setting": "[1]; NPC1 hCV25472673, Statin stratum, hom(CC) vs. ref(TT), covars none", "result": 0.87}, {"measurement": "RR (relative risk for RMI)", "setting": "[1]; PLAB hCV7494810, Het(GC) stratum, Statin vs Placebo, covars HX_SMOKE", "result": 0.46}, {"measurement": "RR (relative risk for RMI)", "setting": "[1]; PLAB hCV7494810, Maj Hom(CC) stratum, Statin vs Placebo, covars HX_SMOKE", "result": 0.94}, {"measurement": "RR (relative risk for RMI)", "setting": "[1]; PLAB hCV7494810, Min Hom(GG) stratum, Statin vs Placebo, covars HX_SMOKE", "result": 0.75}, {"measurement": "RR (relative risk for RMI)", "setting": "[1]; PLAB hCV7494810, Statin stratum, het(GC) vs. ref(CC), covars HX_SMOKE", "result": 0.67}, {"measurement": "RR (relative risk for RMI)", "setting": "[1]; PLAB hCV7494810, Statin stratum, hom(GG) vs. ref(CC), covars HX_SMOKE", "result": 0.68}, {"measurement": "RR (relative risk for RMI)", "setting": "[1]; PPOX hCV25922816, Het(GA) stratum, Statin vs Placebo", "result": 0.42}, {"measurement": "RR (relative risk for RMI)", "setting": "[1]; PPOX hCV25922816, Maj Hom(GG) stratum, Statin vs Placebo", "result": 0.82}, {"measurement": "RR (relative risk for RMI)", "setting": "[1]; PPOX hCV25922816, Statin stratum, het(GA) vs. ref(GG)", "result": 0.64}, {"measurement": "RR (relative risk for RMI)", "setting": "[1]; PTPRJ hCV8895373, Het(GA) stratum, Statin vs Placebo", "result": 1.07}, {"measurement": "RR (relative risk for RMI)", "setting": "[1]; PTPRJ hCV8895373, Maj Hom(GG) stratum, Statin vs Placebo", "result": 0.60}, {"measurement": "RR (relative risk for RMI)", "setting": "[1]; PTPRJ hCV8895373, Min Hom(AA) stratum, Statin vs Placebo", "result": 1.62}, {"measurement": "RR (relative risk for RMI)", "setting": "[1]; PTPRJ hCV8895373, Statin stratum, het(GA) vs. ref (GG)", "result": 1.43}, {"measurement": "RR (relative risk for RMI)", "setting": "[1]; PTPRJ hCV8895373, Statin stratum, hom(AA)vs. ref(GG)", "result": 1.14}, {"measurement": "RR of adverse cardiovascular event in the statin treated group", "setting": "[1]; hCV16044337, homozygous AA genotype", "result": 0.56}, {"measurement": "RR of adverse cardiovascular event in the statin treated group", "setting": "[1]; hCV25644901, dominant genotype (GG or GA)", "result": 0.58}, {"measurement": "myopathic potential", "setting": "[2]", "result": "low myopathic potential"}]}
